Data taken from ChEMBL document CHEMBL5154819 (Eur J Med Chem, 2022).
In brackets after ≈: the same amount, converted by molar mass.

Experiments:
Mus musculus [1] = assay: Analgesic activity in iv dosed ICR mouse assessed as reduction in acetic acid induced writhing administered for 15 mins followed by acetic acid injection and measured within 15 mins; format: functional; conditions: 0.5 h, time 30 min
Rattus norvegicus = species on record: Rattus norvegicus; assay: Antiinflammatory activity in carrageenan-induced Sprague-Dawley rat assessed as paw withdrawal threshold measured after 2.5 hrs by paw pressure test; format: functional
Mus musculus [2] = assay: Analgesic activity in acetic acid induced ICR mouse assessed as average writhing times at 6.25 mg/kg, iv administered for 15 mins followed by acetic acid injection and measured within 15 mins (reference value: 26.1 +/- 16.3); format: functional; conditions: time 30 min, 0.5 h
Mus musculus [3] = assay: Analgesic activity in acetic acid induced ICR mouse assessed as average writhing times at 12.50 mg/kg, iv administered for 15 mins followed by acetic acid injection and measured within 15 mins (reference value: 26.1 +/- 16.3); format: functional; conditions: dose 12.5 mg/kg, time 30 min, 0.5 h
Mus musculus [4] = assay: Analgesic activity in acetic acid induced ICR mouse assessed as average writhing times at 25 mg/kg, iv administered for 15 mins followed by acetic acid injection and measured within 15 mins (reference value: 26.1 +/- 16.3); format: functional; conditions: time 30 min, 0.5 h
Mus musculus [5] = assay: Analgesic activity in acetic acid induced ICR mouse assessed as average writhing times at 3.13 mg/kg, iv administered for 15 mins followed by acetic acid injection and measured within 15 mins (reference value: 26.1 +/- 16.3); format: functional; conditions: time 30 min, 0.5 h
Mus musculus [6] = assay: Antinociceptive activity in acetic acid induced ICR mouse assessed as inhibition effect at 6.25 mg/kg, iv administered for 15 mins followed by acetic acid injection and measured within 15 mins; format: functional; conditions: 0.5 h, time 30 min
Mus musculus [7] = assay: Antinociceptive activity in acetic acid induced ICR mouse assessed as inhibition effect at 12.50 mg/kg, iv administered for 15 mins followed by acetic acid injection and measured within 15 mins; format: functional; conditions: 0.5 h, time 30 min
Mus musculus [8] = assay: Antinociceptive activity in acetic acid induced ICR mouse assessed as inhibition effect at 25 mg/kg, iv administered for 15 mins followed by acetic acid injection and measured within 15 mins; format: functional; conditions: 0.5 h, time 30 min
Mus musculus [9] = assay: Antinociceptive activity in acetic acid induced ICR mouse assessed as inhibition effect at 3.13 mg/kg, iv administered for 15 mins followed by acetic acid injection and measured within 15 mins; format: functional; conditions: 0.5 h, time 30 min
[10] = Aqueous solubility of the compound
Mus musculus [11] = assay: Analgesic activity in acetic acid induced ICR mouse assessed as average writhing times at 50 mg/kg, iv administered for 15 mins followed by acetic acid injection and measured within 15 mins (reference value: 26.1 +/- 16.3); format: functional; conditions: time 30 min, 0.5 h
Mus musculus [12] = assay: Antinociceptive activity in acetic acid induced ICR mouse assessed as inhibition effect at 50 mg/kg, iv administered for 15 mins followed by acetic acid injection and measured within 15 mins; format: functional; conditions: 0.5 h, time 30 min
[13] = Aqueous solubility of the compound at pH 7.8; format: physicochemical

Molecule `CC(C)Cc1ccc(C(C)C(=O)O)cc1` (stereo not drawn) [IBUPROFEN] has an ED50 (Mus musculus [1]) of 5 mg/kg, an ED50 (Rattus norvegicus) of 21 mg/kg and an Activity (Mus musculus [2]) of 6.1. For the same molecule, the Activity (Mus musculus [3]) was 4, the Activity (Mus musculus [4]) was 3 and the Activity (Mus musculus [5]) was 21. For the same molecule, the inhibition in vivo at 6.25 mg/kg (Mus musculus [6]) was 76.6%, the inhibition in vivo at 12.5 mg/kg (Mus musculus [7]) was 84.7% and the inhibition in vivo at 25 mg/kg (Mus musculus [8]) was 88.5%. The inhibition in vivo at 3.13 mg/kg (Mus musculus [9]) was 19.5% and the solubility [10] was 21.9 µg/mL (≈ 106 µM).
Work on `CCC(=O)[N-]S(=O)(=O)c1ccc(-c2c(-c3ccccc3)noc2C)cc1.[Na+]` [PARECOXIB SODIUM] yielded an ED50 (Mus musculus [1]) of 15.7 mg/kg, an ED50 (Rattus norvegicus) of 22.7 mg/kg and an Activity (Mus musculus [2]) of 22.2. The Activity (Mus musculus [3]) was 13.7, the Activity (Mus musculus [4]) was 10.1 and the Activity (Mus musculus [11]) was 2.4. For the same molecule, the Activity (Mus musculus [5]) was 21, the inhibition in vivo at 6.25 mg/kg (Mus musculus [6]) was 14.9% and the inhibition in vivo at 12.5 mg/kg (Mus musculus [7]) was 47.5%. It also gave an inhibition in vivo at 25 mg/kg (Mus musculus [8]) of 61.3%, an inhibition in vivo at 50 mg/kg (Mus musculus [12]) of 90.8% and a solubility [13] of 18000 µg/mL.
